# Experiments:
# [1] = biological target: T1, Solute carrier organic anion transporter family member 2B1 (Homo sapiens, UniProt O94956); test: Inhibition of human liver OATP2B1 expressed in HEK293 Flp-In cells assessed as reduction in [3H]E3S uptake at 20 uM incubated for 5 mins by scintillation counting; conditions: hek293, 5 min
# T1 sequence (O94956 whole entry): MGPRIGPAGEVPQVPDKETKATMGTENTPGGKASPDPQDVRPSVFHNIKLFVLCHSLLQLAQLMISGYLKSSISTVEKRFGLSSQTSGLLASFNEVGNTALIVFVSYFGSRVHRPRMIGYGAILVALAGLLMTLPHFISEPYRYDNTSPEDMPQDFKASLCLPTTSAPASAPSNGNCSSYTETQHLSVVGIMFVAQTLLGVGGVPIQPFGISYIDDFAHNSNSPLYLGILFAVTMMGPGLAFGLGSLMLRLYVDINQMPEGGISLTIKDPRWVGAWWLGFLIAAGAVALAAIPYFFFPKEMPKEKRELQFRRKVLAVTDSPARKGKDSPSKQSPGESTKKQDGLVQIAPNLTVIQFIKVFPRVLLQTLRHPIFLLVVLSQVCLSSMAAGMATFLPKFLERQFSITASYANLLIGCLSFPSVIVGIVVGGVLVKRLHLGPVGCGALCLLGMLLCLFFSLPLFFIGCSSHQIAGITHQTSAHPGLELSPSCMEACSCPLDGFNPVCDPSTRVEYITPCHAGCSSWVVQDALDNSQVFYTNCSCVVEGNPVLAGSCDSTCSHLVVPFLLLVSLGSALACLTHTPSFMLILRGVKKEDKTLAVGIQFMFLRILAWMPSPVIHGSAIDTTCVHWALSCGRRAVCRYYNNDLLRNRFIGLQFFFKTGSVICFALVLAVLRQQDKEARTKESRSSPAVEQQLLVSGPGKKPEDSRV
# [2] = biological target: T2, Solute carrier organic anion transporter family member 1B3 (Homo sapiens, UniProt Q9NPD5); test: Inhibition of human liver OATP1B3 expressed in HEK293 Flp-In cells assessed as reduction in [3H]E17-betaG uptake at 20 uM incubated for 5 mins by scintillation counting; conditions: hek293, 5 min
# T2 sequence (Q9NPD5 whole entry): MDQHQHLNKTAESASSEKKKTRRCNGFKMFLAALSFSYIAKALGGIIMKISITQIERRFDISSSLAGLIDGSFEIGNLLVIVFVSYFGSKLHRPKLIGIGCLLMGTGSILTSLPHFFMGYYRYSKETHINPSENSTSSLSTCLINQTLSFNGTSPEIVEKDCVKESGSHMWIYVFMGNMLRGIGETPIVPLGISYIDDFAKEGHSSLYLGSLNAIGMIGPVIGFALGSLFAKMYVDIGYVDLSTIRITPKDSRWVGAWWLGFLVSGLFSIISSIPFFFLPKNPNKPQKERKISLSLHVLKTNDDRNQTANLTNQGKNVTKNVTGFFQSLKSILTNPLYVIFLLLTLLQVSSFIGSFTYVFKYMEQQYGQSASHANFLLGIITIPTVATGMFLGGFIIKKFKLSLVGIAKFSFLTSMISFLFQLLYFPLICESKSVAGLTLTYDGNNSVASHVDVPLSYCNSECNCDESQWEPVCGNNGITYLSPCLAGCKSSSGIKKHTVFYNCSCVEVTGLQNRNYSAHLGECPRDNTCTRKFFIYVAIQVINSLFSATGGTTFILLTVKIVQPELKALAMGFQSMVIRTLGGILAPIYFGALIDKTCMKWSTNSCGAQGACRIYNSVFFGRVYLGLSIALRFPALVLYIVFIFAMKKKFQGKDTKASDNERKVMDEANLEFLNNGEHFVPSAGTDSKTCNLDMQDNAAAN
# [3] = biological target: T3, OATP1B1 (Homo sapiens, UniProt Q9Y6L6); test: (§1) Inhibition of human liver OATP1B1 expressed in HEK293 Flp-In cells assessed as reduction in E17-betaG uptake at 20 uM by scintillation counting
# T3 sequence (Q9Y6L6 whole entry): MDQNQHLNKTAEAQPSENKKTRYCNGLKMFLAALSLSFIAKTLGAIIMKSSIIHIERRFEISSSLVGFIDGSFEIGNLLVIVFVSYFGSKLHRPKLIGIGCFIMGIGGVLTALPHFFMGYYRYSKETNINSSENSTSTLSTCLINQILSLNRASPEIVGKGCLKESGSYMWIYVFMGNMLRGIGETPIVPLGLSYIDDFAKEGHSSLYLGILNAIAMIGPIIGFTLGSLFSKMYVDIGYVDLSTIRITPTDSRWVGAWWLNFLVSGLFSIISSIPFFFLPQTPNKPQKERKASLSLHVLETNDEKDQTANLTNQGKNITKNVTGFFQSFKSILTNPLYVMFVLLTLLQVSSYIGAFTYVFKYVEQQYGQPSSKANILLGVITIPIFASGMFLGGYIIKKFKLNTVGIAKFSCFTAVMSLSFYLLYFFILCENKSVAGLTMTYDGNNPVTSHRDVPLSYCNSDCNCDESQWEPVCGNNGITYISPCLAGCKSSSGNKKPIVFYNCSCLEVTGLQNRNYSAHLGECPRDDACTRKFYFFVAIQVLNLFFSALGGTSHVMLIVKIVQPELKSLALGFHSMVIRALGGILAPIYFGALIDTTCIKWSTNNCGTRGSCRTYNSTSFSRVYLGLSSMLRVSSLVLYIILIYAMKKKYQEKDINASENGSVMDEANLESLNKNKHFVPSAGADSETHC
# [4] = biological target: T4, Solute carrier organic anion transporter family member 1B1 (Homo sapiens, UniProt Q9Y6L6); test: Inhibition of human liver OATP1B1 expressed in HEK293 Flp-In cells assessed as reduction in E17-betaG uptake by scintillation counting; assay type: ADME, cell-based
# T4 sequence (Q9Y6L6 whole entry): T3 sequence (Q9Y6L6 whole entry)
# [5] = Fraction unbound in plasma; assay type: ADME, cell-free
# [6] = biological target: T1, Solute carrier organic anion transporter family member 2B1; test: Inhibition of human liver OATP2B1 expressed in HEK293 Flp-In cells assessed as reduction in [3H]E3S uptake incubated for 5 mins by scintillation counting; assay type: ADME, cell-based
# [7] = biological target: T4, Solute carrier organic anion transporter family member 1B1; test: as §1; conditions: hek293, 20 µM
# [8] = biological target: T2, Solute carrier organic anion transporter family member 1B3; test: Activity at human liver OATP1B3 expressed in HEK293 Flp-In cells assessed as rate of compound transport per mg of protein; assay type: ADME, cell-based
# [9] = biological target: T5, OATP1B3 (Homo sapiens, UniProt Q9NPD5); test: Activity at human liver OATP1B3 expressed in HEK293 Flp-In cells; assay type: ADME, cell-based; conditions: HEK293 Flp-In cells expressing OATP1B3
# T5 sequence (Q9NPD5 whole entry): T2 sequence (Q9NPD5 whole entry)
# [10] = biological target: T2, Solute carrier organic anion transporter family member 1B3; test: Ratio of Vmax to Km for human liver OATP1B3 expressed in HEK293 Flp-In cells assessed per mg protein; assay type: ADME, cell-based
# [11] = test system: OATP1B1 versus OATP1B3; test: Selectivity index, ratio of IC50 for human liver OATP1B1 to IC50 for OATP1B3; conditions: read-out: Ratio IC50
# [12] = biological target: T2, Solute carrier organic anion transporter family member 1B3; test: Inhibition of human liver OATP1B3 expressed in HEK293 Flp-In cells assessed as reduction in [3H]E17-betaG uptake incubated for 5 mins by scintillation counting; assay type: ADME, cell-based
# [13] = HEK293 Flp-In cells expressing OATP1B1, probe E17-betaG
SMILES,INH [1],INH [2],"inhibition at 20 µM [3, 13]",other results
C[n+]1ccccc1,12.8%,-2.3%,27.9%,
C[n+]1ccc(-c2ccccc2)cc1,2.4%,10.8%,14.2%,
CCOc1ccc(-c2nc3cc(-c4nc5cc(N6CCN(C)CC6)ccc5[nH]4)ccc3[nH]2)cc1,12.7%,,,IC50 [4]: 19 µM; inhibition at 20 µM ([3]; hek293): 48.1%
C[n+]1cc2c3c(ccc2c2ccc4cc5c(cc4c21)OCO5)OCO3,15%,2.9%,-0.2%,
CC(=O)Oc1ccc2c(c1)Oc1cc(OC(C)=O)ccc1C21OC(=O)c2cc(C(=O)O)ccc21,-24.9%,71.1%,70.7%,
N[C@@H]1C[C@H]1c1ccccc1.N[C@H]1C[C@@H]1c1ccccc1 (relative stereo) [TRANYLCYPROMINE],15.5%,-9.3%,,inhibition at 20 µM ([3]; hek293): -9.5%
Cc1ccc(-c2cc(C(F)(F)F)nn2-c2ccc(S(N)(=O)=O)cc2)cc1 [CELECOXIB],-69%,22.3%,,inhibition at 20 µM ([3]; hek293): -3.3%
COc1ccc2c(c[n+](C)c3c4cc5c(cc4ccc23)OCO5)c1OC [CHELERYTHRINE],13.1%,24.9%,-0.7%,
CCN(CC)CCCC(C)Nc1ccnc2cc(Cl)ccc12 (configuration not stated) [CHLOROQUINE],23.5%,-7.2%,-1.4%,
CC[C@H]1OC(=O)[C@H](C)[C@@H](O[C@H]2C[C@@](C)(OC)[C@@H](O)[C@H](C)O2)[C@H](C)[C@@H](O[C@@H]2O[C@H](C)C[C@H](N(C)C)[C@H]2O)[C@](C)(OC)C[C@@H](C)C(=O)[C@H](C)[C@@H](O)[C@]1(C)O [CLARITHROMYCIN],5.1%,53.8%,73.1%,
COc1cccc2c1C(=O)c1c(O)c3c(c(O)c1C2=O)C[C@@](O)(C(=O)CO)C[C@@H]3O[C@H]1C[C@H](N)[C@H](O)[C@H](C)O1 [DOXORUBICIN],49.9%,26.6%,-5.8%,
C#Cc1cccc(Nc2ncnc3cc(OCCOC)c(OCCOC)cc23)c1 [ERLOTINIB],93.7%,27.5%,,Cp(f) [5]: 400 nM; IC50 [6]: 0.55 µM; INH [7]: 10.6%
C[C@]12CC[C@@H]3c4ccc(O)cc4CC[C@H]3[C@@H]1CC[C@@H]2O[C@@H]1O[C@H](C(=O)O)[C@@H](O)[C@H](O)[C@H]1O [ESTRADIOL 17B GLUCURONIDE],-12.2%,69%,67.9%,Vmax [8]: 10.12 pmol/min; Km [9]: 11.7 µM; Vmax/Km [10]: 0.86 µL/min
C[C@H](CCC(=O)NCC(=O)O)[C@H]1CC[C@H]2[C@@H]3[C@H](O)C[C@@H]4C[C@H](O)CC[C@]4(C)[C@H]3C[C@H](O)[C@]12C [GLYCOCHOLIC ACID],-9.8%,29%,66.4%,
N[C@@H](Cc1cc(I)c(Oc2cc(I)c(O)c(I)c2)c(I)c1)C(=O)O [LEVOTHYROXINE],63.7%,11.4%,-13.1%,
CC1COc2c(N3CCN(C)CC3)c(F)cc3c(=O)c(C(=O)O)cn1c23 (configuration not stated) [OFLOXACIN],18.4%,24.5%,-8.2%,
CCCc1nc(C(C)(C)O)c(C(=O)OCc2oc(=O)oc2C)n1Cc1ccc(-c2ccccc2-c2nnn[nH]2)cc1 [OLMESARTAN MEDOXOMIL],-7.9%,,60.4%,
Cc1nccn1CC1CCc2c(c3ccccc3n2C)C1=O (configuration not stated) [ONDANSETRON],-8.7%,-3.6%,4.8%,
S=C=NCCc1ccccc1 [PHENETHYLISOTHIOCYANATE],-32%,12.3%,-16.4%,
CC[C@H](C)C(=O)O[C@H]1C[C@H](O)C=C2C=C[C@H](C)[C@H](CC[C@@H](O)C[C@@H](O)CC(=O)O)[C@H]21 [PRAVASTATIN],36.8%,5.4%,,IC50 [4]: 3.6 µM; INH [7]: 52.2%
CSCC[C@H](NC(=O)[C@H](Cc1ccc(OS(=O)(=O)O)cc1)NC(=O)[C@@H](N)CC(=O)O)C(=O)NCC(=O)N[C@@H](Cc1c[nH]c2ccccc12)C(=O)N[C@@H](CCSC)C(=O)N[C@@H](CC(=O)O)C(=O)N[C@@H](Cc1ccccc1)C(N)=O [SINCALIDE],60.1%,96.9%,89.3%,
C[C@H](CCC(=O)NCCS(=O)(=O)O)[C@H]1CC[C@H]2[C@@H]3CC[C@@H]4C[C@H](O)CC[C@]4(C)[C@H]3C[C@H](O)[C@]12C [TAURODEOXYCHOLIC ACID],85.3%,61.4%,81.7%,
CC[C@]1(O)C[C@H]2CN(CCc3c([nH]c4ccccc34)[C@@](C(=O)OC)(c3cc4c(cc3OC)N(C=O)[C@H]3[C@@](O)(C(=O)OC)[C@H](OC(C)=O)[C@]5(CC)C=CCN6CC[C@]43[C@@H]65)C2)C1 [VINCRISTINE],13%,59.8%,,selectivity ratio [11]: 4; IC50 [4]: 44 µM; IC50 [12]: 11 µM; INH [7]: 3.9%

# Reference: ChEMBL document CHEMBL2163248, “Classification of inhibitors of hepatic organic anion transporting polypeptides (OATPs): influence of protein expression on drug-drug interactions” (J Med Chem, 2012)
